In ChEMBL document CHEMBL4145540 (Eur J Med Chem, 2018):
Active and inactive are the calls of the source. The rule behind the calls is not given here.

Columns and labels:
[1] = test system: A549; test: Cell cycle arrest in human A549 cells assessed as accumulation at sub-G0 phase at 750 nM after 20 hrs by propidium iodide staining based flow cytometry (reference value: 6.6 +/- 0.1%); format: functional
[2] = test system: A549; test: Cell cycle arrest in human A549 cells assessed as accumulation at S phase at 750 nM after 20 hrs by propidium iodide staining based flow cytometry (reference value: 16 +/- 1%); format: functional
[3] = test system: HeLa; test: Antiproliferative activity against human HeLa cells after 2 days by MTT assay; format: functional, cell-based; details: 48 h
[4] = test system: HL-60; test: Antiproliferative activity against human HL60 cells after 2 days by MTT assay; format: functional, cell-based; details: HL-60, 48 h
[5] = test system: A549; test: Antiproliferative activity against human A549 cells after 2 days by MTT assay; format: functional, cell-based; details: A549, 48 h
[6] = test system: HMEC-1; test: Antiproliferative activity against HMEC1 cells after 2 days by MTT assay; format: functional, cell-based; details: Homo sapiens, HMEC-1, 48 h
[7] = test system: MCF7; test: Antiproliferative activity against human MCF7 cells after 2 days by MTT assay; format: functional, cell-based; details: MCF7, 48 h
[8] = test system: A549; test: Cell cycle arrest in human A549 cells assessed as accumulation at G2/M phase at 750 nM after 20 hrs by propidium iodide staining based flow cytometry (reference value: 11 +/- 1%); format: functional
[9] = test system: MDA-MB-231; test: Antiproliferative activity against human MDA-MB-231 cells after 3 days by coulter counting method; format: functional, cell-based; details: MDA-MB-231, 72 h
[10] = test system: HEK293; test: Antiproliferative activity against HEK293 cells after 2 days by MTT assay; format: cell-based; details: Homo sapiens, HEK293, 48 h
[11] = test system: HT-29; test: Antiproliferative activity against human HT-29 cells after 2 days by MTT assay; format: functional, cell-based; details: HT-29, 48 h
[12] = test system: A549; test: Disruption of microtubule network in human A549 cells assessed as appearance of compressed and fragmented nuclei at 260 nM after 16 hrs by Hoechst staining based immunofluorescence assay; format: cell-based
[13] = test system: A549; test: Cell cycle arrest in human A549 cells assessed as accumulation at S phase at 65 nM after 20 hrs by propidium iodide staining based flow cytometry (reference value: 16 +/- 1%); format: functional
[14] = test system: A549; test: Cell cycle arrest in human A549 cells assessed as accumulation at G0/G1 phase at 65 nM after 20 hrs by propidium iodide staining based flow cytometry (reference value: 66 +/- 1%); format: functional
[15] = test system: A549; test: Cell cycle arrest in human A549 cells assessed as accumulation at G2/M phase at 65 nM after 20 hrs by propidium iodide staining based flow cytometry (reference value: 11 +/- 1%); format: functional
[16] = Selectivity index, ratio of IC50 for antiproliferative activity against HEK293 cells to IC50 for antiproliferative activity against human MCF7 cells; format: toxicity, cell-based; details: HEK293 cells versus MCF7 cells, read-out: Ratio IC50
[17] = Selectivity index, ratio of IC50 for antiproliferative activity against HEK293 cells to IC50 for antiproliferative activity against human HeLa cells; format: toxicity, cell-based; details: HEK293 cells versus HeLa cells, read-out: Ratio IC50
[18] = test system: A549; test: Disruption of microtubule network in human A549 cells assessed as appearance of tubulin aggregates at 260 nM after 16 hrs by Hoechst staining based immunofluorescence assay; format: cell-based
[19] = Selectivity index, ratio of IC50 for antiproliferative activity against HEK293 cells to IC50 for antiproliferative activity against human HT-29 cells; format: toxicity, cell-based; details: HEK293 cells versus HT-29 cells, read-out: Ratio IC50
[20] = Selectivity index, ratio of IC50 for antiproliferative activity against HEK293 cells to IC50 for antiproliferative activity against human HL60 cells; format: toxicity, cell-based; details: HEK293 cells versus HL60 cells, read-out: Ratio IC50
[21] = test system: A549; test: Cell cycle arrest in human A549 cells assessed as accumulation at sub-G0 phase at 65 nM after 20 hrs by propidium iodide staining based flow cytometry (reference value: 6.6 +/- 0.1%); format: functional
[22] = test system: A549; test: Cell cycle arrest in human A549 cells assessed as accumulation at G0/G1 phase at 200 nM after 20 hrs by propidium iodide staining based flow cytometry (reference value: 66 +/- 1%); format: functional
[23] = test system: A549; test: Cell cycle arrest in human A549 cells assessed as accumulation at G2/M phase at 200 nM after 20 hrs by propidium iodide staining based flow cytometry (reference value: 11 +/- 1%); format: functional
[24] = test system: A549; test: Cell cycle arrest in human A549 cells assessed as accumulation at sub-G0 phase at 200 nM after 20 hrs by propidium iodide staining based flow cytometry (reference value: 6.6 +/- 0.1%); format: functional
[25] = test system: A549; test: Cell cycle arrest in human A549 cells assessed as accumulation at S phase at 200 nM after 20 hrs by propidium iodide staining based flow cytometry (reference value: 16 +/- 1%); format: functional
[26] = test system: A549; test: Cell cycle arrest in human A549 cells assessed as accumulation at S phase at 75 nM after 20 hrs by propidium iodide staining based flow cytometry (reference value: 16 +/- 1%); format: functional
[27] = test system: A549; test: Induction of apoptosis in human A549 cells after 24 hrs by Annexin V-FITC/propidium iodide staining based flow cytometry; format: functional, cell-based
[28] = test system: MDA-MB-231; test: Inhibition of EBI binding to beta-tubulin colchicine binding site in human MDA-MB-231 cells at 3 uM preincubated for 16 hrs followed by EBI addition and measured after 1.5 hrs by Western blot analysis; format: cell-based
[29] = test system: A549; test: Induction of apoptosis in human A549 cells at 100 nM after 24 hrs by Annexin V-FITC/propidium iodide staining based flow cytometry (reference value: 28%); format: functional
[30] = test system: A549; test: Cell cycle arrest in human A549 cells assessed as accumulation at G0/G1 phase at 75 nM after 20 hrs by propidium iodide staining based flow cytometry (reference value: 66 +/- 1%); format: functional
[31] = test system: A549; test: Induction of apoptosis in human A549 cells at 10 nM after 24 hrs by Annexin V-FITC/propidium iodide staining based flow cytometry (reference value: 28%); format: functional
[32] = test system: A549; test: Cell cycle arrest in human A549 cells assessed as accumulation at sub-G0 phase at 75 nM after 20 hrs by propidium iodide staining based flow cytometry (reference value: 6.6 +/- 0.1%); format: functional
[33] = test system: A549; test: Cell cycle arrest in human A549 cells assessed as accumulation at G2/M phase at 75 nM after 20 hrs by propidium iodide staining based flow cytometry (reference value: 11 +/- 1%); format: functional
[34] = test system: HMEC-1; test: Vascular disruptive activity in HMEC1 cells assessed as disruption of preformed tubular networks after 4 hrs by matrigel based assay; format: functional, cell-based; details: Homo sapiens
[35] = test system: A549; test: Cell cycle arrest in human A549 cells assessed as accumulation at sub-G0 phase at 80 nM after 20 hrs by propidium iodide staining based flow cytometry (reference value: 6.6 +/- 0.1%); format: functional
[36] = test system: A549; test: Cell cycle arrest in human A549 cells assessed as accumulation at S phase at 80 nM after 20 hrs by propidium iodide staining based flow cytometry (reference value: 16 +/- 1%); format: functional
[37] = test system: A549; test: Cell cycle arrest in human A549 cells assessed as accumulation at G2/M phase at 80 nM after 20 hrs by propidium iodide staining based flow cytometry (reference value: 11 +/- 1%); format: functional
[38] = test system: A549; test: Cell cycle arrest in human A549 cells assessed as accumulation at G0/G1 phase at 80 nM after 20 hrs by propidium iodide staining based flow cytometry (reference value: 66 +/- 1%); format: functional
[39] = species: Bos taurus; test: Inhibition of calf brain tubulin polymerization after 60 mins by turbidimetric method

Structure (SMILES) | IC50 [3] [nM] | IC50 [4] [nM] | IC50 [5] [nM] | IC50 [6] [nM] | IC50 [7] [nM] | IC50 [9] [nM] | IC50 [10] [nM] | IC50 [11] [nM] | selectivity ratio [16] | selectivity ratio [17] | selectivity ratio [19] | selectivity ratio [20] | Activity [27] | inhibition [28] | Activity [29] [%] | Activity [31] [%] | further results
COc1ccc(/C=C\c2cc(OC)c(OC)c(OC)c2)cc1NC(=O)Oc1cc(C)cc(C)c1 | 130 | 620 | 1540 | 180 | 210 | 12 | 150 | 260 |  |  |  |  |  |  |  |  | Activity [1]: 22%; Activity [2]: 16%; Activity [8]: 38%
COc1ccc(/C=C\c2cc(OC)c(OC)c(OC)c2)cc1NC(=O)Oc1ccccc1Cl | 5 | 3.7 | 130 | 50 | 10.1 | 13.8 | 41 | 17.8 | 2 to 11 | 2 to 11 | 2 to 11 | 2 to 11 |  |  |  |  | Activity [12]: Active; Activity [13]: 12%; Activity [14]: 29%; Activity [15]: 43%; Activity [18]: Active; Activity [21]: 16%
COc1ccc(/C=C\c2cc(OC)c(OC)c(OC)c2)cc1NC(=O)Oc1cccc(C)c1 | 23 | 67 | 390 | 50 | 25 | 13.6 | 40 | 46 |  |  |  |  |  |  |  |  | Activity [22]: 26%; Activity [23]: 36%; Activity [24]: 22%; Activity [25]: 16%
COc1ccc(/C=C\c2cc(OC)c(OC)c(OC)c2)cc1NC(=O)Oc1ccc(Br)cc1 | 1.2 | 5 | 150 | 7 | 0.75 | 4.07 | 19 | 3.5 | 2 to 11 | 2 to 11 | 2 to 11 | 2 to 11 | Dose-dependent effect | Active | 95 | 36 | Activity [26]: 17%; Activity [30]: 32%; Activity [32]: 19%; Activity [33]: 33%; Activity [34]: Dose-dependent effect
COc1ccc(/C=C\c2cc(OC)c(OC)c(OC)c2)cc1NC(=O)Oc1ccc(F)cc1 | 60 | 50 | 400 | 65 | 95.4 | 13.8 | 185 | 60 | 2 to 11 | 2 to 11 | 2 to 11 | 2 to 11 |  |  |  |  | Activity [22]: 26%; Activity [23]: 34%; Activity [24]: 21%; Activity [25]: 19%
COc1ccc(/C=C\c2cc(OC)c(OC)c(OC)c2)cc1NC(=O)Oc1cccc(C(F)(F)F)c1 | 40 | 4 | 130 | 16 | 56 | 14.2 | 42.2 | 13 |  |  |  |  |  |  |  |  | Activity [12]: Active; Activity [13]: 15%; Activity [14]: 28%; Activity [15]: 41%; Activity [18]: Active; Activity [21]: 16%
COc1ccc(/C=C\c2cc(OC)c(OC)c(OC)c2)cc1NC(=O)Oc1cccc(Br)c1 | 2.6 | 5.6 | 160 | 12 | 5.9 | 13.4 | 16 | 11.3 | 2 to 11 | 2 to 11 | 2 to 11 | 2 to 11 | Dose-dependent effect |  | 90 | 51 | Activity [35]: 17%; Activity [36]: 12%; Activity [37]: 39%; Activity [38]: 30%; inhibition [39]: Active
COc1cc2c(c(OC)c1OC)-c1ccc(OC)c(=O)cc1[C@@H](NC(C)=O)CC2 |  |  |  |  |  |  |  |  |  |  |  |  |  | Active |  |  | 
COc1cccc(OC(=O)Nc2cc(/C=C\c3cc(OC)c(OC)c(OC)c3)ccc2OC)c1 | 3.4 | 4.9 | 160 | 5 | 7.18 | 8 | 8.1 | 4.8 |  |  |  |  | Dose-dependent effect | Active | 92 | 49 | Activity [35]: 17%; Activity [36]: 16%; Activity [37]: 36%; Activity [38]: 31%; Activity [34]: Dose-dependent effect
